Experimental data: PubChem BioAssay AID274 (DTP/NCI, 2004)
Several values for one entry are separate records, joined by “and”; a condition that tells them apart may be missing. Equal values may be shown once. Toxic doses and inconclusive results are not listed. Peptide text beside a SMILES is read from it. * marks the point of attachment. Trt = c1ccc(C(c2ccccc2)(c2ccccc2)*)cc1; Cbz = O=C(OCc1ccccc1)*

Tested on: BDF1 mice, Lewis lung carcinoma iv, survival T/C
Test: NCI In Vivo Anticancer Drug Screen. Data for tumor model Lewis Lung Carcinoma (intravenous) in B6D2F1 (BDF1) mice
Conditions: endpoint: median survival time, higher = longer survival
Procedure: The antitumor activity of compounds was measured in mice bearing transplantable tumors. Survival or tumor size were measured and the results are expressed as the measurement made in the treated group (T) divided by the measurement made in the vehicle treated control group (C). The tumor model used in this assay is Lewis Lung Carcinoma (intravenous) in B6D2F1 (BDF1) mice

[1] = dose: 6.25 mg/kg/injection, schedule: Q01DX009 (ip), vehicle: saline with Tween-80
[2] = dose: 6.25 mg/kg/injection, schedule: Q01DX009 (ip), vehicle: saline
[3] = dose: 12.5 mg/kg/injection, schedule: Q01DX009 (ip), vehicle: saline with Tween-80
[4] = dose: 12.5 mg/kg/injection, schedule: Q01DX009 (ip), vehicle: saline
[5] = dose: 25.0 mg/kg/injection, schedule: Q01DX009 (ip), vehicle: saline with Tween-80
[6] = dose: 25.0 mg/kg/injection, schedule: Q01DX009 (ip), vehicle: saline
[7] = dose: 50.0 mg/kg/injection, schedule: Q01DX009 (ip), vehicle: saline
[8] = dose: 100.0 mg/kg/injection, schedule: Q01DX009 (ip), vehicle: saline
[9] = dose: 12.5 mg/kg/injection, schedule: Q01DX009 (ip), vehicle: distilled water + Tween-80
[10] = dose: 25.0 mg/kg/injection, schedule: Q01DX009 (ip), vehicle: distilled water + Tween-80
[11] = dose: 50.0 mg/kg/injection, schedule: Q01DX009 (ip), vehicle: distilled water + Tween-80
[12] = dose: 100.0 mg/kg/injection, schedule: Q01DX009 (ip), vehicle: distilled water + Tween-80
[13] = dose: 50.0 mg/kg/injection, schedule: Q01DX009 (ip), vehicle: saline with Tween-80
[14] = dose: 100.0 mg/kg/injection, schedule: Q01DX009 (ip), vehicle: saline with Tween-80
[15] = dose: 200.0 mg/kg/injection, schedule: Q01DX009 (ip), vehicle: saline with Tween-80
[16] = dose: 200.0 mg/kg/injection, schedule: Q01DX009 (ip), vehicle: saline

`CCN1C[C@]2(COC)[C@H](O)C[C@H](OC)[C@]34C1[C@H]([C@H](OC)[C@H]23)[C@]1(OC(C)=O)[C@H]2[C@@H](OC(=O)c3ccccc3)[C@](O)(C[C@H]24)[C@@H](OC)[C@@H]1O` was tested, and the T/C (dose: 0.03 mg/kg/injection, schedule: Q01DX009 (ip), vehicle: Klucel (hydroxypropylcellulose) (HPC)) was 108 % of control, the T/C (dose: 0.06 mg/kg/injection, schedule: Q01DX009 (ip), vehicle: Klucel (hydroxypropylcellulose) (HPC)) was 107 % of control and the T/C (dose: 0.13 mg/kg/injection, schedule: Q01DX009 (ip), vehicle: Klucel (hydroxypropylcellulose) (HPC)) was 99 % of control.
With `COc1cc2cc[n+](C)c(Cc3ccccc3)c2cc1OC` the T/C (dose: 3.12 mg/kg/injection, schedule: Q01DX009 (ip), vehicle: saline with Tween-80) was 285 % of control, the T/C (dose: 3.12 mg/kg/injection, schedule: Q01DX009 (ip), vehicle: saline) was 106 % of control and the T/C [1] was 91 % of control. The T/C [2] was 108 % of control, the T/C [3] was 161 % of control and the T/C [4] was 116 % of control. For the same compound, the T/C [5] was 95 % of control and the T/C [6] was 120 % of control.
With `O=S(=O)(c1ccc(NC(C(O)C(O)C(O)C(O)CO)S(=O)(=O)O)cc1)c1ccc(NC(C(O)C(O)C(O)C(O)CO)S(=O)(=O)O)cc1` (stereo not drawn) the T/C (dose: 72.0 mg/kg/injection, schedule: Q01DX007 (ip), vehicle: saline) was 90 % of control, the T/C (dose: 102.9 mg/kg/injection, schedule: Q01DX007 (ip), vehicle: saline) was 95 % of control and the T/C (dose: 147.0 mg/kg/injection, schedule: Q01DX007 (ip), vehicle: saline) was 86 % of control. For the same compound, the T/C (dose: 210.0 mg/kg/injection, schedule: Q01DX007 (ip), vehicle: saline) was 96 % of control and the T/C (dose: 300.0 mg/kg/injection, schedule: Q01DX007 (ip), vehicle: saline) was 94 % of control.
In the case of `COc1cc(NS(C)(=O)=O)ccc1Nc1c2ccccc2nc2ccccc12`, the T/C (dose: 3.6 mg/kg/injection, schedule: Q04DX003 (ip), vehicle: clinical formulation) is reported as 104 % of control, the T/C (dose: 6.0 mg/kg/injection, schedule: Q04DX003 (ip), vehicle: clinical formulation) is reported as 108 % of control and the T/C (dose: 16.7 mg/kg/injection, schedule: Q04DX003 (ip), vehicle: clinical formulation) is reported as 121 % of control.
In the case of `OCCNCCNc1ccnc2cc(Cl)ccc12`, the T/C [4] is reported as 115 % of control, the T/C [6] is reported as 94 % of control and the T/C [7] is reported as 107 % of control. For the same compound, the T/C [8] was 98 % of control.
`CC(=O)OCC1OC(n2cnc3c(=S)nc[nH]c32)C(OC(C)=O)C1OC(C)=O` (stereo not drawn) was tested, and the T/C (dose: 50.0 mg/kg/injection, schedule: Q01DX009 (ip), vehicle: suspension in saline) was 100 % of control.
For `COC(=O)C(CSC(c1ccccc1)(c1ccccc1)c1ccccc1)NC(=O)C(CC(N)=O)NC(=O)OCc1ccccc1` (stereo not drawn) (Cbz-Asn-Cys(Trt)-OMe; configuration not given here), the T/C [9] was 103 % of control, the T/C [10] was 101 % of control and the T/C [11] was 89 % of control. The T/C [12] was 100 % of control, the T/C (dose: 200.0 mg/kg/injection, schedule: Q01DX009 (ip), vehicle: distilled water + Tween-80) was 105 % of control and the T/C (dose: 400.0 mg/kg/injection, schedule: Q01DX009 (ip), vehicle: distilled water + Tween-80) was 98 % of control.
`Nc1ccc(Cl)cc1N` was tested, and the T/C [3] was 92 % of control, the T/C [5] was 93 % of control and the T/C [13] was 99 % of control. The T/C [14] was 104 % of control and the T/C [15] was 102 % of control.
`O=[N+]([O-])c1ccc(-n2[nH]nnc2=S)cc1` was tested, and the T/C [3] was 92 % of control, the T/C [5] was 101 % of control and the T/C [13] was 92 % of control. The T/C [14] was 92 % of control and the T/C [15] was 93 % of control.
For `CC[C@]1(O)C[C@H]2CN(CCc3c([nH]c4ccccc34)[C@@](C(=O)OC)(c3cc4c(cc3OC)N(C)[C@H]3[C@@](O)(C(=O)OC)[C@H](OC(C)=O)[C@]5(CC)C=CCN6CC[C@]43[C@@H]65)C2)C1`, the T/C (dose: 0.6 mg/kg/injection, schedule: Q04DX003 (ip), vehicle: saline) was 106 % of control, the T/C (dose: 125.0 micrograms/kg/injection, schedule: Q04DX003 (ip), vehicle: saline) was 93 % of control (2×) and 102 % of control and the T/C (dose: 250.0 micrograms/kg/injection, schedule: Q04DX003 (ip), vehicle: saline) was 92 % of control (2×) and 95 % of control. The T/C (dose: 360.0 micrograms/kg/injection, schedule: Q01DX009 (ip), vehicle: saline) was 111 % of control, the T/C (dose: 500.0 micrograms/kg/injection, schedule: Q04DX003 (ip), vehicle: saline) was 92 % of control (2×) and 95 % of control and the T/C (dose: 600.0 micrograms/kg/injection, schedule: Q01DX009 (ip), vehicle: saline) was 92 % of control.
`COC1OC(CO)C(O)C(NC(=O)N(C)N=O)C1O` (stereo not drawn) was tested, and the T/C [4] was 109 % of control, the T/C [6] was 108 % of control and 115 % of control and the T/C [8] was 123 % of control. For the same compound, the T/C [16] was 152 % of control.
For `CC1=C(/C=C/C(C)=C/C=C/C(C)=C/C=O)C(C)(C)CCC1`, the T/C (dose: 4.0 mg/kg/injection, schedule: Q01DX005 (ip), vehicle: saline with Tween-80) was 96 % of control, the T/C (dose: 8.0 mg/kg/injection, schedule: Q01DX005 (ip), vehicle: saline with Tween-80) was 96 % of control and 109 % of control and the T/C (dose: 16.0 mg/kg/injection, schedule: Q01DX005 (ip), vehicle: saline with Tween-80) was 95 % of control and 116 % of control. For the same compound, the T/C (dose: 32.0 mg/kg/injection, schedule: Q01DX005 (ip), vehicle: saline with Tween-80) was 108 % of control and the T/C (dose: 64.0 mg/kg/injection, schedule: Q01DX005 (ip), vehicle: saline with Tween-80) was 95 % of control and 96 % of control.
In the case of `O=C(O)CP(=O)(O)O`, the T/C [7] is reported as 96 % of control, the T/C [8] is reported as 96 % of control and the T/C [16] is reported as 152 % of control.
For `CN(C)[C@@H]1C(=O)C(C(N)=O)=C(O)[C@@]2(O)C(=O)C3=C(O)c4c(O)ccc(Cl)c4[C@@](C)(O)[C@H]3C[C@@H]12`, the T/C [4] was 111 % of control, the T/C [6] was 101 % of control and the T/C [7] was 99 % of control. For the same compound, the T/C [8] was 103 % of control and the T/C [16] was 107 % of control.
In the case of `CCCCCC(O)C1C(=O)OC(C)C(O)/C=C/C=C/C=C/C=C\C=C(\C)C(O)CC(O)CC(O)CC(O)CC(O)CC(O)CC1O` (stereo not drawn), the T/C (dose: 3.12 mg/kg/injection, schedule: Q01DX009 (ip), vehicle: distilled water + alcohol) is reported as 103 % of control, the T/C (dose: 6.25 mg/kg/injection, schedule: Q01DX009 (ip), vehicle: distilled water + alcohol) is reported as 96 % of control and the T/C (dose: 12.5 mg/kg/injection, schedule: Q01DX009 (ip), vehicle: distilled water + alcohol) is reported as 106 % of control. The T/C (dose: 25.0 mg/kg/injection, schedule: Q01DX009 (ip), vehicle: distilled water + alcohol) was 96 % of control.
For `c1ccc(CCN2CCC(CCc3c[nH]c4ccccc34)CC2)cc1`, the T/C [4] was 100 % of control, the T/C [6] was 104 % of control and the T/C [7] was 116 % of control.
For `CCCCCCCCCCCCCCC/C([O-])=N/[N+](C)(C)CC(C)O` (stereo not drawn), the T/C (dose: 12.5 mg/kg/injection, schedule: Q01DX001 (ip), vehicle: saline) was 95 % of control, the T/C (dose: 25.0 mg/kg/injection, schedule: Q01DX001 (ip), vehicle: saline) was 96 % of control and the T/C (dose: 50.0 mg/kg/injection, schedule: Q01DX001 (ip), vehicle: saline) was 97 % of control. The T/C (dose: 100.0 mg/kg/injection, schedule: Q01DX001 (ip), vehicle: saline) was 104 % of control, the T/C (dose: 200.0 mg/kg/injection, schedule: Q01DX001 (ip), vehicle: saline) was 108 % of control and the T/C (dose: 400.0 mg/kg/injection, schedule: Q01DX001 (ip), vehicle: saline) was 102 % of control.
With `OCCOCC(F)(F)F` the T/C [1] was 98 % of control, the T/C [3] was 86 % of control and the T/C [5] was 106 % of control. The T/C [6] was 89 % of control, the T/C [13] was 90 % of control and the T/C [14] was 102 % of control. For the same compound, the T/C [15] was 103 % of control.
For `O=C1C=CC(n2cc(F)c(=O)[nH]c2=O)O1` (stereo not drawn), the T/C [2] was 106 % of control, the T/C [4] was 96 % of control and the T/C [6] was 103 % of control. For the same compound, the T/C [7] was 119 % of control.
With `Nc1cc(Cl)c2[nH]cnc2n1` the T/C (dose: 6.25 mg/kg/injection, schedule: Q01DX009 (ip), vehicle: distilled water + Tween-80) was 106 % of control, the T/C [9] was 98 % of control and the T/C [10] was 109 % of control. The T/C [11] was 113 % of control and the T/C [12] was 107 % of control.
`N#CCCSC(=S)C1CCCC1=N` (stereo not drawn) was tested, and the T/C [3] was 105 % of control, the T/C [5] was 101 % of control and the T/C [13] was 106 % of control. For the same compound, the T/C [14] was 93 % of control, the T/C [15] was 98 % of control and the T/C (dose: 400.0 mg/kg/injection, schedule: Q01DX009 (ip), vehicle: saline with Tween-80) was 106 % of control.
